This note sets out measurements from patent publication US8440698B2, “3-(4-((1H-imidazol-1-yl)methyl)phenyl)-5-aryl-1,2,4-oxadiazole derivatives as sphingosine-1 phosphate receptors modulators” (Allergan, Inc., priority 2010, dated 2013).

For this assay, the target named is T1, human S1P1 receptor (Homo sapiens, UniProt P21453).
T1 construct: expressed in transfected cells; membranes used
The assay can be described thus: GTP γ35S binding assay for S1P1 activity. The format is biochemical. The conditions noted are these: for Emax at 5 µM: intrinsic activity at 5 μM, read-out: % S1P1 STIMULATION @ 5 μM; for EC50: membranes of cells stably expressing S1P1, test concentrations 0.08 to 5,000 nM, read-out: S1P1 GTPγ^35S EC50. How it is done:
Novel compounds were synthesized and tested for S1P1 activity using the GTP γ^35S binding assay. These compounds may be assessed for their ability to activate or block activation of the human S1P1 receptor in cells stably expressing the S1P1 receptor. GTP γ^35S binding was measured in the medium containing (mM) HEPES 25, pH 7.4, MgCl2 10, NaCl 100, dithitothreitol 0.5, digitonin 0.003%, 0.2 nM GTP γ^35S, and 5 μg membrane protein in a volume of 150 μl. Test compounds were included in the concentration range from 0.08 to 5,000 nM unless indicated otherwise. Membranes were incubated with 100 μM 5′-adenylylimmidodiphosphate for 30 min, and subsequently with 10 μM GDP for 10 min on ice. Drug solutions and membrane were mixed, and then reactions were initiated by adding GTP γ^35S and continued for 30 min at 25° C. Reaction mixtures were filtered over Whatman GF/B filters under vacuum, and washed three times with 3 mL of ice-cold buffer (HEPES 25, pH7.4, MgCl2 10 and NaCl 100). Filters were dried and mixed with scintillant, and counted for ^35S activity using a β-counter. Agonist-induced GTP γ^35S binding was obtained by subtracting that in the absence of agonist. Binding data were analyzed using a non-linear regression method. In case of antagonist assay, the reaction mixture contained 10 nM S1P in the presence of test antagonist at concentrations ranging from 0.08 to 5000 nM.
(GTPγS resists hydrolysis and so accumulates on activated G proteins.)

What is called EC50 is the midpoint of the concentration-response curve.

T1 sequence (P21453 whole entry): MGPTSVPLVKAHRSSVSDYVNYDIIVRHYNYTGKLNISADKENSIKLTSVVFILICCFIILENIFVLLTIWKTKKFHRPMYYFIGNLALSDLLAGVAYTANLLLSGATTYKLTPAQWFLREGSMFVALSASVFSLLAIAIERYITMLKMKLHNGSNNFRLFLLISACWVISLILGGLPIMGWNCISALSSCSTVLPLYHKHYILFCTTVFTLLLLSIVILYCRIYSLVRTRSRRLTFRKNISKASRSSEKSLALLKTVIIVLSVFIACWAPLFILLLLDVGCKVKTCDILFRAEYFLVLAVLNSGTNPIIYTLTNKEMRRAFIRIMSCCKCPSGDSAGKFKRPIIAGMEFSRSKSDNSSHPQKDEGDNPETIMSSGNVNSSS

In the case of `Cc1cc(-c2nc(-c3ccc(Cn4ccnc4)cc3C)no2)ccc1OC(C)C` [Compound 18, 3-(4-Imidazol-1-ylmethyl-2-methyl-phenyl)-5-(4-isopropoxy-3-methyl-phenyl)-[1,2,4]oxadiazole], the Emax at 5 µM came to 94.6% and the half-maximal effective concentration (EC50) turned out to be 0.0198 µM.
Regarding `Cc1cc(Cn2ccnc2)ccc1-c1noc(-c2ccc(OC(C)C)c([N+](=O)[O-])c2)n1` [Compound 19, 3-(4-Imidazol-1-ylmethyl-2-methyl-phenyl)-5-(4-isopropoxy-3-nitro-phenyl)-[1,2,4]oxadiazole], the Emax at 5 µM was determined as 102% and the EC50 came out at 0.00898 µM.
